Measured values as given in article PMC3109436 (Journal of medicinal chemistry, 2009).
Values joined by “and” are separate entries in the source; they are usually repeats but may differ in a detail not shown here. Equal values may be shown once. “Also recorded” adds a separate entry of the source. Read-outs that look alike come from different tables or passages of the source. Marks after values point to notes of the source that are not given here. Blank lines part the entries; values can stand above or below the compound they belong to.

Tests used:
[1] = molecular target: T1, human A2A adenosine receptor (hA2AAR) (Homo sapiens, UniProt P29274); settings: cited from earlier work; for % inhibition of radioligand binding A2A: at 10 μM
T1 sequence (P29274 whole entry): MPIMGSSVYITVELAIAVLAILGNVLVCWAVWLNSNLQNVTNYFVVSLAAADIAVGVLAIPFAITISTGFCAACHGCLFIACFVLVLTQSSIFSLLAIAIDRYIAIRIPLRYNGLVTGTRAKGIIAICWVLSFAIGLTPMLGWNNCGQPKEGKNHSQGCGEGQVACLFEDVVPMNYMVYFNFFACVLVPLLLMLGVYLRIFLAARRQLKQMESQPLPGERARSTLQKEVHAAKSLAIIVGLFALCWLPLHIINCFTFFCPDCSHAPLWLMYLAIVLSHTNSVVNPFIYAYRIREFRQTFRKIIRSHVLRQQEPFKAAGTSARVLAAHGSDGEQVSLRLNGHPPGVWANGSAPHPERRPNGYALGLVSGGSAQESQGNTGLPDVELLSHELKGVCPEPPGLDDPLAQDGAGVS

[2] = molecular target: T2, human A3AR (Homo sapiens, UniProt P0DMS8); settings: at 10 μM, relative to 51 (= 100%); cited from earlier work
T2 sequence (P0DMS8 1-318): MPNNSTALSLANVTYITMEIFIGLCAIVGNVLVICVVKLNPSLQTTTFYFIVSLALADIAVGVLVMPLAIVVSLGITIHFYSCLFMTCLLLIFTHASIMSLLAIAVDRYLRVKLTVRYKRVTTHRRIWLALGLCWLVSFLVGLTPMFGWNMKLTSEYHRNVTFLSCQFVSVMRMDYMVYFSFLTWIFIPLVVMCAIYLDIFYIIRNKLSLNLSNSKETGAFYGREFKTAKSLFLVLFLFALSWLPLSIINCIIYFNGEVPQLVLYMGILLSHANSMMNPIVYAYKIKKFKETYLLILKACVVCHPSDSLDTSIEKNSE

[3] = test system: A3AR; settings: at 10 μM, percentage of full effect induced by 10 μM 51; cited from earlier work
[4] = molecular target: T2, human A3AR; experiment: Inhibition of forskolin-stimulated cAMP production; settings: for agonist character at hA3AR in the adenylate cyclase (cAMP) assay: relative to full agonist 51
[5] = molecular target: T3, rA3AR (Rattus norvegicus, UniProt P28647); experiment: Radioligand binding at rat A3AR
T3 sequence (P28647 1-320): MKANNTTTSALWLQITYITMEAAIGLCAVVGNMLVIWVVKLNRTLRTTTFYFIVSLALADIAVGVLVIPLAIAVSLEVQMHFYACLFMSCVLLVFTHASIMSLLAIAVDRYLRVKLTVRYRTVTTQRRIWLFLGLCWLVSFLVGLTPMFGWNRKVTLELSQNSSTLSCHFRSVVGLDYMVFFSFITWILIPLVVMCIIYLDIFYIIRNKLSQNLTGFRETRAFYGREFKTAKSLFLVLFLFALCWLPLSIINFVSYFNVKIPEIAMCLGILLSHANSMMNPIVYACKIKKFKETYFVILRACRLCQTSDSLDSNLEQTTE

[6] = molecular target: T4, human A1 adenosine receptor (hA1AR) (Homo sapiens, UniProt P30542); experiment: Radioligand binding at human A1AR, membranes of CHO cells
T4 sequence (P30542 1-326): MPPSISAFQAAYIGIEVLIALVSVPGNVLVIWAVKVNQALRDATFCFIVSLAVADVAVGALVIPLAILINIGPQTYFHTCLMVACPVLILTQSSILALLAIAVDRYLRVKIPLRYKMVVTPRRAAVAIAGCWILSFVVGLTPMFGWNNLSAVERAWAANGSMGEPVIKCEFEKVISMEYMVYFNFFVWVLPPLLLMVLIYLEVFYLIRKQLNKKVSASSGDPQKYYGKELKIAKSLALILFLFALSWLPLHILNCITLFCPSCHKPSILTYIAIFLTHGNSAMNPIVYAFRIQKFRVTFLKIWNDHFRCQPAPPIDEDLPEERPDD

[7] = molecular target: T1, human A2A adenosine receptor (hA2AAR); experiment: Radioligand binding at human A2AAR, membranes of HEK293 cells
[8] = molecular target: T5, human A3 adenosine receptor (hA3AR) (Homo sapiens, UniProt P0DMS8); experiment: Radioligand binding at human A3AR, membranes of CHO cells
T5 sequence (P0DMS8 1-318): T2 sequence (P0DMS8 1-318)

SMILES: CNC(=O)[C@@]12C[C@@H]1[C@@H](n1cnc3c(NCc4cccc(I)c4)nc(Cl)nc31)[C@H](O)[C@@H]2O [Compound 1b, reference compound]
- Ki ([1]; read-out: affinity (Ki) A2A, HEK293 cells expressing hA2AAR): 784 ± 97 nM
- % efficacy, A3 (inhibition of forskolin-stimulated cAMP production) [2]: 100 ^c %

SMILES: O[C@@H]1[C@H](O)[C@@H]2C[C@@H]2[C@H]1n1cnc2c(NCc3cccc(Cl)c3)nc(Cl)nc21 [Compound 2a]
- % efficacy, A3 (stimulation of [35S]GTPγS binding) [3]: 2.9 ± 3.7 ^f %

SMILES: CNC(=O)[C@@]12C[C@@H]1[C@@H](n1cnc3c(NCc4cccc(Cl)c4)nc(C#CCCCC(=O)O)nc31)[C@H](O)[C@@H]2O [Compound 6]
- % inhibition of radioligand binding A2A [1]: (43%)

SMILES: CNC(=O)[C@]12C[C@@H]1[C@@H](n1cnc3c(NCc4cccc(Cl)c4)nc(C#CCCCC(=O)OC)nc31)[C@H](O)[C@@H]2O [Compound 9]
- % inhibition of radioligand binding A2A [1]: (49%)

SMILES: CNC(=O)[C@]12C[C@@H]1[C@@H](n1cnc3c(NCc4cccc(Cl)c4)nc(C#CCCCC(=O)NCCN)nc31)[C@H](O)[C@@H]2O [Compound 12]
- % inhibition of radioligand binding A2A [1]: (81%)

SMILES: CCN1C(=CC=CC=CC2=[N+](CCCCCC(=O)NCCNC(=O)CCC#Cc3nc(NCc4cccc(Cl)c4)c4ncn(C5C(O)C(O)C6(C(=O)NC)CC56)c4n3)c3ccc(S(=O)(=O)O)cc3C2(C)C)C(C)(C)c2cc(S(=O)(=O)[O-])ccc21 (stereo not drawn) [Compound 18, (1′S,2′R,3′S,4′S,5′S)-4′-[6-(3-Chlorobenzylamino)-2-(N-cyaiune(β-aminoethylaminocarbonyl)-1-butynyl)-9-yl]-2′,3′-dihydroxybicyclo[3.1.0]hexane-1′-carboxylic Acid N-Methylamide]
- Ki [5]: 9.62 nM and 9.6 nM
- inhibition at 10 µM ([6]; read-out: % inhibition of radioligand binding A1): 36%
- Ki [7]: 4730 ± 1020 nM
- agonist character at hA3AR in the adenylate cyclase (cAMP) assay [4]: full agonist

SMILES: O[C@@H]1[C@H](O)[C@@H]2C[C@@H]2[C@H]1n1cnc2c(NCc3cccc(Cl)c3)ncnc21 [Compound 22]
- agonist character at hA3AR in the adenylate cyclase (cAMP) assay [4]: partial

SMILES: O[C@@H]1[C@H](O)[C@@H]2C[C@@H]2[C@H]1n1cnc2c(NCc3cccc(I)c3)ncnc21 [Compound 23, (1′R,2′R,3′S,4′ S,5′ S)-4′-[6-(3-Iodobenzylamino)purine]-2′,3′-dihydroxybicyclo[3.1.0]hexane]
- Ki [8]: 11 ± 2.2 nM
- Ki [7]: 2330 ± 680 nM
- agonist character at hA3AR in the adenylate cyclase (cAMP) assay [4]: nearly full agonism

SMILES: O[C@@H]1[C@H](O)[C@@H]2C[C@@H]2[C@H]1n1cnc2c(NC3CCCC3)nc(Cl)nc21 [Compound 25]
- fold reduction of affinity at A1AR on loss of the 5′-N-methyluronamide group ([6]; 25 versus 4): 6 fold
- fold reduction of affinity at A3AR on loss of the 5′-N-methyluronamide group ([8]; 25 versus 4): 32 fold
- agonist character at hA3AR in the adenylate cyclase (cAMP) assay [4]: nearly full agonism; also recorded: full agonist

Continued, in another order:

- agonist character at hA3AR in the adenylate cyclase (cAMP) assay [4]: partial agonists
SMILES: O[C@@H]1[C@H](O)[C@@H]2C[C@@H]2[C@H]1n1cnc2c(NCc3cccc(Br)c3)nc(Cl)nc21 [Compound 2b, (1R,2R,3S,4R,5S)-4-(6-(3-bromobenzylamino)-2-chloro-9H-purin-9-yl)bicyclo-[3.1.0]hexane-2,3-diol, reference compound]

- agonist character at hA3AR in the adenylate cyclase (cAMP) assay [4]: partial agonists
SMILES: O[C@@H]1[C@H](O)[C@@H]2C[C@@H]2[C@H]1n1cnc2c(NCc3cccc(I)c3)nc(Cl)nc21 [Compound 2c, reference compound]
- % efficacy, A3 (stimulation of [35S]GTPγS binding) [3]: 1.0 ± 3.2%

- EC50 [4]: 2.5 ± 0.42 nM
SMILES: CNC(=O)[C@]12C[C@@H]1[C@@H](n1cnc3c(NCc4cccc(Cl)c4)nc(C#CCCC(=O)NCCNC(=O)CCCC[C@H]4SC[C@H]5NC(=O)N[C@H]54)nc31)[C@H](O)[C@@H]2O [Compound 17a, (1′S,2′R,3′S,4′S,5′S)-4′-[6-(3-Chiorobenzylamino)-2-(N-biotinyl(β-aminoethylaminocarbonyl)-1-butynyl)-9-yl]-2′, 3′-dihydroxybicyclo[3.1.0]hexane-1′-carboxylic Acid N-Methylamide]
